According to patent US20150335602A1, “IMPROVEMENT OF COGNITIVE FUNCTION IN PRETERM INFANTS THAT ARE SMALL FOR GESTATIONAL AGE” (N.V. NUTRICIA, priority 2013, published 2015):

Assays:
Type in all cases: in vivo, human
[1] = Intellectual development (WISC-III short form, FSIQ) in preterm children born small for gestational age; conditions: SGA glutamine group versus SGA control group, n=9 each
Procedure: A subgroup of infants born small for gestational age (SGA <10th percentile) was identified and analysed separately. Intellectual development was analysed in this subgroup of infants by a short form of the Wechsler Intelligence Scale for Children-III (WISC-III), including the subtests Vocabulary and Block Design. Both subtests correlate strongly (r 0.90) with full-scale intelligence quotient (FSIQ). Scores on this test were normalised with a mean of 100 (SD 15). A group of nine SGA infants that received placebo was compared with a group of nine SGA infants that received glutamine treatment.

[2] = Brain subcortical volumes by MRI at school age after enteral glutamine supplementation in the first month of life; conditions: glutamine supplemented group versus control preterm group
Procedure: (§1) A randomized, placebo controlled clinical trial was performed. For a detailed protocol of the study, see van den Berg et al, 2004, Glutamine-enriched enteral nutrition in very low birth weight infants. Design of a double-blind randomised controlled trial [ISRCTN73254583], BMC Pediatrics 4:17.
(§2) In short: Infants with a gestational age <32 weeks and/or birth weight <1500 g were enrolled. […] Also comparisons were made with a control group (n=52) of term born infants.
(§3) The two powders were indistinguishable by appearance, colour and smell. […] Initially, the supplementation dose was based on birth weight. After 2 weeks the dose was adjusted to actual body weight. Two members of the nursing staff daily added supplementation to breast milk or to preterm formula (Nenatal®, Nutricia Nederland B. V., Zoetermeer, The Netherlands), according to the parents' choice. Per 100 ml, Nenatal® provides 78 kcal, 2.1 g protein (casein-whey protein weight ratio 40:60), 4.4 g fat and 7.5 g carbohydrate. […] Protocol guidelines for the introduction of parenteral and enteral nutrition are disclosed in van den Berg et al., 2004.
(§4) All statistical analyses are performed on an intention to treat basis. […]
Brain subcortical volumes were determined by MRI and calculated using FSL software “FAST” and corrected for age at MRI scan, gender and body weight for gestational age.

[3] = Brain cortical volumes by MRI at school age after enteral glutamine supplementation in the first month of life; conditions: glutamine supplemented group versus control preterm group
Procedure: as §1, §2, §3, §4
Brain cortical volumes were determined by MRI and calculated using FSL software “FAST” and corrected for age at MRI scan, gender and body weight for gestational age.

SMILES: NC(=O)CC[C@H](N)C(=O)O [Glutamine, L-glutamine]
- IQ compared to SGA control group (in words) [1]: significant improvement
- Brain stem volume compared to preterm control group (in words) [2]: significantly higher
- Hippocampus volume compared to preterm control group (in words) [2]: significantly higher
- White matter volume compared to preterm control group (in words) [3]: significantly higher
